Reference: PMC6315541, “Nile Tilapia Derived Antimicrobial Peptide TP4 Exerts Antineoplastic Activity Through Microtubule Disruption” (Marine Drugs, 2018)

Test system: A549 cells
Assay: Cell viability (CellTiter-Glo ATP assay) in A549 cells
Assay type: cell-based, human
Details: 24 h; for relative ATP levels (cell viability): CellTiter-Glo ATP assay, luminescence, mean ± SD of three independent assays, n ≥ 5 wells per dose
Protocol: Figure 6 Loss of cancer-killing ability in TP4 mutants. (A) Cell viability in A549 cells was determined by the adenosine triphosphate (ATP) assay following treatment with varying doses of TP4 and TP4 mutants for 24 h. Multiple wells were analyzed for each assay. Results represent the mean ± SD. Statistical comparisons between groups were performed using two-way ANOVA: a, not significant; b, p < 0.05; d, p < 0.001. Statistical analyses are shown in Supplementary Table S1. (B) Cells were stained for TP4 (WT panel), FITC (MT-1 to MT-6 panels), α-Tubulin, and F-actin. Hoechst33342 was used for nuclei staining. Boxed regions are magnified in the furthest right panels. […] Bar: 20 μm.
The A549 cell line (Bioresource Collection and Research Center (BCRC) 60074) was purchased from the BCRC and cultured according to BCRC recommendations. For the cell viability and transfection assay, 4–5 × 10^3 cells were seeded into the wells of a 96-well plate and cultured overnight. Cells were then treated according to the indicated doses and times. Cell viability was quantified using the CellTiter-Glo® Luminescent Cell Viability Assay kit (ATP assay) (Madison, WI, USA) as previously described. The luminescent signal was measured using a photometer (SpectraMax® i3, Molecular Devices, Wals, Austria).
For the multi-well based assay, cells were plated at least in quadruplicate. Data were collected from independently repeated experiments (N ≥ 3) and were analyzed by Prism5 software (GraphPad Inc., La Jolla, CA, USA). Statistical significance was determined by a two-tailed Student’s t-test or one-way/two-way analysis of variance (ANOVA) with a Bonferroni post hoc test. Differences were considered statistically significant at p < 0.05. […]
Supplementary Table S1. Cellular toxicit y of TP 4 to A549 cells was evaluated b y cell viability. Results of statis tical tests on data in Figu re 6A are shown. Multiple wells were anal yzed for each ex periment (n ≥ 5 wells per do se). Results represent the mean ± SD from three independent assays. Statistical comparisons between mock versus TP4 treatment groups were performed using two -way ANOVA anal ysis with Bonferroni post-hoc test: a, not signi ficant; b, P < 0.05; c, P < 0.01; d, P < 0.001. […]
(A-G) Th e helical projection plot and s tructural model o f TP4 (A) and TP4 variants (MT-1 to MT-6, B-G ). The helical proj ecti on was produced b y an online helical wheel projection program (http://rzlab.ucr.edu/scripts/wheel/wheel.cgi). Amino acid residues are numbered and each amino acid is connected with lines to indicate its relative position along the helix. The hydrophobic residues are shown as diamonds ; h ydrophilic residues are circles. Residues with negative charge are shown as trian gles and positively charged residues are pentagons. Hydrophobicity is color coded. The

Sequence: FIHHIIGGLFSAGKAIHRLIRRRRR [TP4, synthesized Nile tilapia-derived antimicrobial peptide, Tilapia piscidin 4]
- relative ATP levels (cell viability) (3.35 µM): 0.580±0.061
- relative ATP levels (cell viability) (5.03 µM): 0.211±0.030
- relative ATP levels (cell viability) (6.71 µM, listed as WT): 0.129±0.034
- relative ATP levels (cell viability) (6.71 µM, listed as wild-type TP4, 6.71 µM): 0.130 ± 0.036
- relative ATP levels (cell viability) (20.12 µM, listed as WT): 0.009±0.010
- relative ATP levels (cell viability) (20.12 µM, listed as wild-type TP4, 20.12 µM): 0.010 ± 0.010
- cytotoxicity to A549 cells (in words) (doses 3.35-20.12 µM, ATP assay, Figure 6A): obvious dose-dependent cytotoxic effects
